According to patent US20210246159A1, “NOVEL FORM OF BARDOXOLONE METHYL” (Johnson Matthey Public Limited Company, priority 2020, published 2021):

Assay: Storage stability of the crystalline form at 30° C. / 65% RH in a capped vial
Format: physicochemical
Source text: The crystalline formic acid solvate of bardoxolone methyl; more particularly, Form A, can be dried by any conventional methods known to one of ordinary skill in the art. In one embodiment, it is desirable to avoid extensive drying of the crystalline formic acid solvate of bardoxolone methyl; more particularly, Form A, to avoid the potential for desolvation. In one embodiment, it is desirable to store the crystalline formic acid solvate of bardoxolone methyl; more particularly, Form A, away from high heat and humidity. Form A remains stable at 30° C. at 65% RH for at least 5 days in a capped vial.

COC(=O)[C@]12CCC(C)(C)C[C@H]1[C@H]1C(=O)C=C3[C@@]4(C)C=C(C#N)C(=O)C(C)(C)[C@@H]4CC[C@@]3(C)[C@]1(C)CC2 [Form A, di-formic acid solvate of bardoxolone methyl]
time Form A remains stable: at least 5 days
